Laboratory results: article PMC9179882 (Cancers, 2022)
pIC50: −log10 of the molar value.

Legend:
CRL1790 cells = assay: Resazurin cytotoxic assay, non-tumoral CRL1790; format: cell-based; conditions: Homo sapiens, Epithelial cell, CRL1790 non-tumoral colon epithelial cells, 48 h, mean ± SD
Method: CRL1790, SW480 and SW620 cell lines were purchased from American Type Culture Collection (ATCC). Cells were cultured at 37 °C with 5% CO2 atmosphere in medium supplemented with 10% fetal bovine serum (10270106, Gibco, Waltham, MA, USA), 10 mg/mL penicillin, 10 mg/mL streptomycin, […] amphotericin, and 0.03% L-Glutamine as recommended by the ATCC. MEM medium (M5650, Merck, Darmstadt, Germany) was used for non-tumoral CRL1790, and RPMI 1640 medium (L0501-500, Biowest, Nuaillé, France) was used for both tumoral SW480 and SW620 cell lines.
Cytotoxic activity was screened using Resazurin Fluorimetric Assay (R7017, Merck, Darmstadt, Germany), according to the manufacturer’s protocol. Cells seeded into 96-well plates (8 × 10^3 cells/well) were treated for 48 h with phenolic compounds at increasing concentrations from 2 × 10^−5 µM to 100 µM. Negative control with vehicle DMSO was included. Fluorescence was determined using Nanoquant Infinite M200 Pro multi-plate reader (Tecan). Half-maximal inhibitory concentration (IC50) values were determined in triplicate by non-linear regression with Graphpad (Prism).
Natural products such as phenolic compounds have recently attracted significant attention for their anticancer properties. […] We used three different cell lines to mimic CRC progression. In particular, CRL1790 are colon epithelial cells simulating the non-tumoral stage. In addition, SW480 is Dukes’ type B colorectal adenocarcinoma cells representing the primary tumor. Finally, SW620 constitutes Dukes’ type C colorectal adenocarcinoma derived from metastasic site cells to mimic the most aggressive metastasic stage. […] Cytotoxic potency upon 48 h treatment with phenolic compounds was examined by determination of half-maximal inhibitory concentration (IC50) values using the Resazurin method (Table 1). Only GA inhibited cell growth in SW480 and SW620 at clinically-relevant concentrations (IC50 values lower than 30 µM).

SW480 cells [1] = assay: Cell cycle analysis by propidium iodide flow cytometry; format: cell-based, human; conditions: SW480, GA IC50 for 24 h
Method: Cell cycle analyses were carried out by flow cytometry with propidium iodide (PI) (P4864, Merck, Darmstadt, Germany). Cells (10^6) were seeded into 10 cm culture dishes and treated with GA IC50 for 24 h or with the vehicle DMSO as control. Cells were then fixed with ice-cold 70% ethanol on ice and stained with 0.04 mg/mL PI and 0.1 mg/mL ribonuclease A (19101, Qiagen, Hilden, Germany). Cell cycle distribution was determined by an analytical DNA flow cytometer (FACSVerse, BD Biosciences) with instrument settings on low mode and FlowJo software v10.
(§1) GA is widely present in the plant kingdom and largely found in different food sources. According to its cytotoxic activity (shown above), cell cycle analysis was performed on SW480 cells by FACS with propidium iodide staining (Figure 1C). After GA IC50 treatment for 24 h, the frequency of cells at different stages of the cell cycle changed with respect to non-treated cells (45.34% of cells at G1, 34.16% at S, 7.65% at G2/M). […] To explore this hypothesis, we determined the intracellular localization of nucleolar proteins by immunofluorescence of SW480 cells treated with GA IC50 for 6 h because we had previously observed that some DNA-binding compounds affect nucleolar organization. In particular, we analyzed three proteins that are indicative of nucleolus status, such as nucleolin (NCL), fibrillarin (FBL), and Pol I catalytic subunit A (POLR1A) (Figure 1D).

SW480 cells [2] = assay: Immunofluorescence of nucleolar proteins (NCL, FBL, POLR1A); format: cell-based, human; conditions: SW480, GA IC50 for 6 h
Method: Cells were seeded on 13 mm circular coverslips and placed in 24-well plates. After exposure to different experimental conditions, fixation was performed with 4% (v/v) paraformaldehyde (P6148, Merck, Darmstadt, Germany) for 10 min at room temperature (RT), permeabilization with 0.1% (v/v) Triton-X100 (T8787, Merck, Darmstadt, Germany) for 10 min and blocking with 10% bovine serum albumin (A7906, Merck, Darmstadt, Germany) containing 0.5% (v/v) Triton-X100 for 30 min at RT. Primary antibodies were incubated for 1 h at RT and secondary antibodies for 30 min at 4 °C in darkness. Finally, all coverslips were mounted onto slides (J2800AMNZ, Thermo scientific, Waltham, MA, USA), including DAPI (4′,6-diamidino-2-phenylindole) for nuclear counterstain. Images were acquired on a Confocal Zeiss LSM 710 inverted microscope with a 63× immersion objective. In a different manner, BG4 immunofluorescence was conducted as previously described. BG4 mean nuclear fluorescence intensity was quantified using Fiji software (N > 250). Antibodies used are listed in Supplementary Table S1.
as §1

5′ETS G4 = assay: PCR-stop assay, 5′ETS G4; format: biochemical; conditions: 5′ETS G4 sequence, GA 0-100 µM
[3] = tested on: CMYC (CD and UV-vis oligonucleotide) (DNA, G4) TGGGGAGGGTGGGGAGGGTGGGGAAGG; assay: circular dichroism; conditions: 100 mM KCl, 10 mM potassium phosphate; pH 7.0, 25 °C; 10 µM DNA, 100 µM GA; positive band decreased, no induced CD
[4] = tested on: 5′ETS (DNA, G4) GGGGGGCGGGTGGTTGGG; assay: UV-vis titration at 265 nm; conditions: 100 mM KCl, 10 mM potassium phosphate; pH 7.0, 25 °C; 5 µM DNA; GA to 1:20 DNA:GA
[5] = tested on: 5′ETS (DNA, G4) GGGGGGCGGGTGGTTGGG; assay: fluorescent intercalator displacement (TOPRO3); conditions: oligonucleotide prefolded in 100 mM KCl, 10 mM potassium phosphate; TOPRO3 displaced; 10 µM GA, single concentration; prefolding buffer pH 7.0
[6] = tested on: CMYC (FID oligonucleotide) (DNA, G4) GGGGCGCTTATGGGGAGGGTGGGGAGGGTGGGGAAGGTGGGGAGGAG; assay: fluorescent intercalator displacement (TOPRO3); conditions: oligonucleotide prefolded in 100 mM KCl, 10 mM potassium phosphate; TOPRO3 displaced; 10 µM GA, single concentration; prefolding buffer pH 7.0

- binding [3]: yes
- Kd [4]: 148 µM
- %Fluorescence [5]: 84.2%
- %Fluorescence [6]: 84.3%
Compound: O=C(O)c1cc(O)c(O)c(O)c1 [Gallic acid, 3,4,5-trihydroxybenzoic acid]
- pIC50 (CRL1790 cells): < 4.00
- % of cells at G2/M (SW480 cells [1]; non-treated 7.65%): 14.46%
- % of cells at S (SW480 cells [1]; non-treated 34.16%): 43.82%
- % of cells at G1 (SW480 cells [1]; non-treated 45.34%): 28.30%
- nucleolar localization of POLR1A (SW480 cells [2]): significant changes in POLR1A were not observed
- nucleolar localization of fibrillarin (FBL) (SW480 cells [2]): segregation of FBL to nucleolar periphery caps
- nucleolar localization of nucleolin (NCL) (SW480 cells [2]): translocation of NCL from the nucleolus to the nucleoplasm
- concentration inhibiting accumulation of amplified products (5′ETS G4): 100 µM
